Values of other authors, collected in patent US20190054079A1, “ENHANCEMENT OF IMPAIRED MOTOR AND MENTAL FUNCTIONS, USING DEXTROMETHORPHAN AND OXIDASE ENZYME INHIBITOR” (Avanir Pharmaceuticals, Inc., priority 2004, published 2019).

Columns and labels:
[1] = tested on: patients suffering from neurological disorders (such as ALS); conditions: DM alone, late 1980's and early 1990's
P450-2D6 enzyme = P450-2D6 enzyme (Homo sapiens, UniProt P10635); conditions: among known drugs in Inaba et al 1985 and 1986
P450-2D6 enzyme, sequence (P10635 whole entry): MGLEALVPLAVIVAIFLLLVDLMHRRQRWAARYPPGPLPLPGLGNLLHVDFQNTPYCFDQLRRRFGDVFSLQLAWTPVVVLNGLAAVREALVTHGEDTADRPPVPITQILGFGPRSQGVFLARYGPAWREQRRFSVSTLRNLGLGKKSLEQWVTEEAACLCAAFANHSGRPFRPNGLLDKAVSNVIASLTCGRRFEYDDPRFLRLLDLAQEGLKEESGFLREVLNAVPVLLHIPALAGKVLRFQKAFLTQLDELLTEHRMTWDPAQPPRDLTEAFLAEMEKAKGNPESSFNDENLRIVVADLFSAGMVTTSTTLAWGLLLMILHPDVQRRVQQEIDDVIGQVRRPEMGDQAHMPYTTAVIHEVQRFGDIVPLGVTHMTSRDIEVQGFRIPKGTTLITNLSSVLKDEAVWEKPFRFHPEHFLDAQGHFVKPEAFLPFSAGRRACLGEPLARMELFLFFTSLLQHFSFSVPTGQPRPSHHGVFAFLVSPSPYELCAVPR

Structure (SMILES)	activity at sigma receptors (sigma receptors)	activity at NMDA receptors (NMDA receptors)	benefit in slowing progression of neurological diseases [1]	potency of P450-2D6 inhibition (P450-2D6 enzyme)
COc1ccc2c(c1)[C@@]13CCCC[C@H]1[C@@H](C2)N(C)CC3 [Dextromethorphan, (+)-3-methoxy-N-methylmorphinan]	stimulates activity	mildly suppresses activity	did not show enough benefits	–
C=C[C@H]1C[N@@]2CC[C@H]1C[C@@H]2[C@@H](O)c1ccnc2ccc(OC)cc12 [quinidine]	–	–	–	most potent P450-2D6 inhibitor
